Like-named read-outs stand apart in the source and are kept apart here.
How the values were obtained:
[1] = tested on: Clinical isolates that have been adapted to cause infection in mice; test: In vivo antibacterial protection, 7 day survival of infected mice; parameters: species or system mice strain CD-1
From the text: In Vivo Antibacterial Protection
Female mice strain CD-1, approximately 18-22 grams, were received from Charles River Laboratories and quarantined 7 days prior to use. In addition, mice may be rendered neutropenic using cytoxan.
Clinical isolates that have been adapted to cause infection in mice, are used in the experiment, including infections with strains of E. coli, K. pneumoniae, M. morganii, E. cloacae, S. marcescens, C. freundii, staphylococci, streptococci, P. aeruginosa and N. gonorrhoeae.
Mice are challenged by injecting 0.5 ml intraperitoneally or 0.05 ml intranasally of a predetermined bacterial inoculum suspended in broth, saline or hog gastric mucin (supplemented with dried bovine hemoglobin for N. gonorrhoeae). […] Antibacterial doses (dose concentration prepared by two fold serial dilutions of the antibiotic) are dissolved or suspended in 0.2% aqueous agar or methocel, phosphate buffered saline or an adjuvant are administered orally, subcutaneously or intravenously in the following manner: • a) Orally or subcutaneously: Dose volume of 0.5 ml administered ½ hr after infection. A second dose may be administered 3 hr. after infection for treatment of infections with more virulent organisms. • b) Intravenously: Dose volume of 0.2 ml, administered ½ hr. after infection. For the treatment of infections with more virulent organisms, more doses, up to 48 hr may be administered. (Intravenous dosing will not exceed 3 doses/24 hr period.) • c) Oral pretreatment: Under special circumstances, the pH of the stomach needs to be adjusted in order to increase the gastric stability of the antibiotic. For this purpose, 0.5 ml of phosphate buffered saline (pH7.8, 0.06M) (or specific approved adjuvant) is administered orally ½ hr after infection, followed 5 minutes later by 0.5 ml of antibiotic (also orally) contained in phosphate buffered saline (pH7.8, 0.06M). Animal Species
A detailed explanation as to the number of animals needed for the determination of in vivo efficacy follows: • A) Novel antibiotics are tested at 5 different dose levels with 5 mice per dose level at each of three routes of administration (oral, subcutaneous and intravenous). […] This would require 25 mice/route with 3 routes/antibiotic or 75 mice per novel compound tested. One to two novel antibiotics will be tested per experiment (75-150 mice) • B) The effectiveness of the new compound must be compared to that of a standard, or antibiotic of known effectiveness. Known or previously tested antibiotics are tested at 5 dose levels with 5 mice per dose level by a single route of administration, for a total of 25 mice/antibiotic. Usually 3-6 antibiotics will be tested per experiment. (75-150 mice). • C) Untreated controls—In each of the above tests, untreated animals are infected with 3 different concentrations of bacterial inoculum with 10 mice per concentration (30 mice total in each and every test). These untreated controls are used to determine and maintain the infection level between 10-100 LD50s as required for test to test comparison and validity. Determination of Protective Effects of Antibacterial Agents:
The protective effects of the antibacterial agent(s) are measured by the survival of the infected untreated as compared to the treated animals. […] A census of survivors is taken twice daily and at that time dead as well as moribund animals are removed. […] The test is performed three times on separate days to provide a statistically valid number of animals and to minimize variation in test results on a day to day and test to test basis.

E. Coli GC2844 = test: Antimicrobial susceptibility testing, microbroth dilution, piperacillin + inhibitor; assay type: cell-based; conditions: piperacillin combined with constant 4 ug/ml of inhibitor; 35° C. for 18 hours
Method: (§1) Antimicrobial susceptibility testing. The in vitro activities of the antibiotics were determined by the microbroth dilution method as recommended by the National Committee for Clinical Laboratory Standards (NCCLS). (NCCLS. 2000. Methods for Dilution Antimicrobial Susceptibility Tests for Bacteria That Grow Aerobically; Approved Standards: M7-A5, vol. 19. National Committe for Clinical Laboratory Standards, Villanova, Pa.). Mueller-Hinton II broth (MHBII) (BBL Cockeysville, Md.), was used for the testing procedure. Microtiter plates containing 50 μl per well of two-fold serial dilutions of piperacillin combined with a constant amount (4 ug/ml) of a B-lactamase inhibitor were inoculated with 50 μl of inoculum to yield the appropriate density (10^5 CFU/ml) in 100·I final volume. The plates were incubated for 18-22 hours at 35° C. in ambient air. […] The MIC data obtained by the above said procedure are enlisted in Table 2.

E. Coli GC2894 (Ampc) = test: as above; assay type: cell-based; conditions: piperacillin combined with constant 4 ug/ml of inhibitor; 35° C. for 18 hours
Method: as §1

E. Coli GC22033 = test: as above; assay type: cell-based; conditions: piperacillin combined with constant 4 ug/ml of inhibitor; 35° C. for 18 hours
Method: as §1

E. Coli GC2920 (IRT-2) = test: as above; assay type: cell-based; conditions: piperacillin combined with constant 4 ug/ml of inhibitor; 35° C. for 18 hours
Method: as §1

E. Coli GC2847 (TEM-1) = test: as above; assay type: cell-based; conditions: piperacillin combined with constant 4 ug/ml of inhibitor; 35° C. for 18 hours
Method: as §1

E. Cloacae GC1477 (Ampc) = test: as above; assay type: cell-based; conditions: piperacillin combined with constant 4 ug/ml of inhibitor; 35° C. for 18 hours
Method: (§2) Antimicrobial susceptibility testing. The in vitro activities of the antibiotics were determined by the microbroth dilution method as recommended by the National Committee for Clinical Laboratory Standards (NCCLS). (NCCLS. 2000. Methods for Dilution Antimicrobial Susceptibility Tests for Bacteria That Grow Aerobically; Approved Standards: M7-A5, vol. 19. National Committe for Clinical Laboratory Standards, Villanova, Pa.). Mueller-Hinton II broth (MHBII) (BBL Cockeysville, Md.), was used for the testing procedure. Microtiter plates containing 50 μl per well of two-fold serial dilutions of piperacillin combined with a constant amount (4 ug/ml) of a B-lactamase inhibitor were inoculated with 50 μl of inoculum to yield the appropriate density (10^5 CFU/ml) in 100·I final volume. The plates were incubated for 18-22 hours at 35° C. in ambient air.

[2] = tested on: P. aeruginos GC1764 (Ampc); test: as above; assay type: cell-based; conditions: piperacillin combined with constant 4 ug/ml of inhibitor; 35° C. for 18 hours
Method: as §2

[3] = tested on: S. Marcescens GC1781 Sme-1 + Ampc; test: as above; assay type: cell-based; conditions: piperacillin combined with constant 4 ug/ml of inhibitor; 35° C. for 18 hours
Method: as §2

S. aureus GC2216 = test: as above; assay type: cell-based; conditions: piperacillin combined with constant 4 ug/ml of inhibitor; 35° C. for 18 hours
Method: as §1

[4] = target: class A β-lactamase TEM-1 (Escherichia coli, UniProt P62593); test: IC50 determination, β-lactamase inhibition (nitrocefin, spectrophotometric); assay type: biochemical, E. coli; conditions: enzyme 4.3 nM; 10 minutes preincubation at 25° C.; nitrocefin 50 μg/ml; pH 7.0
Method: (§3) IC50 Determination for the Penem Inhibitor
(§4) β-Lactamase inhibitory activity of the penem inhibitors was determined spectrophotometrically as described by Bush et al., [Bush, K., Macalintal, C., Rasmussen, B. A., Lee, V. and Yang, Y. Antimicrobial Agents and Chemotherapy 1993, 37, 851]. Homogeneously purified class A β-lactamases TEM-1 from E. coli and Imi-1 from Enterobacter cloacae, class B enzyme CcrA from Bacteroides fragilis and class C enzyme AmpC from Enterobacter cloaca were employed in the assay. The enzyme concentrations for TEM-1, Imi-1, CcrA and AmpC were 4.3, 7.1, 1.2 and 2.1 nM, respectively. A wide range of inhibitor concentrations were prepared in 50 mM PO4, pH 7.0 to include the possible IC50 values. The substrate used to initiate the enzyme reaction was nitrocefin at 50 μg/ml in the same buffer as the inhibitor. Initially the enzyme and inhibitor (20 μl each) were preincubated for 10 minutes at 25° C. prior to the addition of 160 μl volume of nitrocefin. Initial rates of hydrolysis were monitored for 5 minutes at 495 nm using a Molecular Devices Spectra Max 250 with kinetic protocol of SoftMax Program. Readings from the Spectra Max 250 were exported and transferred to Microsoft Excel. The percent of inhibition of each inhibitor concentration was calculated based on the control enzyme activity. The inhibitor concentration that caused a 50% reduction in the enzymatic activity (IC50) was determined graphically.

class B enzyme CcrA = class B enzyme CcrA (Bacteroides fragilis, UniProt P25910); test: as above; assay type: biochemical; conditions: enzyme 1.2 nM; 10 minutes preincubation at 25° C.; nitrocefin 50 μg/ml; pH 7.0; read-out: IC50 (nM) Class B Ccr
Method: as §3, §4

[5] = target: class A β-lactamase Imi-1 (Enterobacter cloacae, UniProt Q46991); test: as above; assay type: biochemical; conditions: enzyme 7.1 nM; 10 minutes preincubation at 25° C.; nitrocefin 50 μg/ml; pH 7.0; read-out: IC50 (nM) Class A Imi
Method: as §3, §4

class C enzyme AmpC = class C enzyme AmpC (Enterobacter cloacae, UniProt P05364); test: biochemical; parameters: species or system Enterobacter cloaca; conditions: enzyme 2.1 nM; 10 minutes preincubation at 25° C.; nitrocefin 50 μg/ml; pH 7.0; read-out: IC50 (nM) Class C AmpC
Method: as §3, §4

[6] = Ratio of Piperacillin vs. Inhibitor not given
[7] = Mus musculus, 168 h, Ratio of Piperacillin vs. Inhibitor 4:1, read-out: ED50

class A β-lactamase Imi-1, sequence (Q46991 28-292): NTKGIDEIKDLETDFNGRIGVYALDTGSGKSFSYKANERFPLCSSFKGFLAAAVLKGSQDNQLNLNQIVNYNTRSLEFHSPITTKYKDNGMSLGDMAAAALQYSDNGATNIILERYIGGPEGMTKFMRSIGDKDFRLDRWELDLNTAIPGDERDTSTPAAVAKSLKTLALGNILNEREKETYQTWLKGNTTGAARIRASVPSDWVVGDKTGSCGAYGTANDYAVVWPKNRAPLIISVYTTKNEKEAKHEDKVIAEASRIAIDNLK
class C enzyme AmpC, sequence (P05364 21-381): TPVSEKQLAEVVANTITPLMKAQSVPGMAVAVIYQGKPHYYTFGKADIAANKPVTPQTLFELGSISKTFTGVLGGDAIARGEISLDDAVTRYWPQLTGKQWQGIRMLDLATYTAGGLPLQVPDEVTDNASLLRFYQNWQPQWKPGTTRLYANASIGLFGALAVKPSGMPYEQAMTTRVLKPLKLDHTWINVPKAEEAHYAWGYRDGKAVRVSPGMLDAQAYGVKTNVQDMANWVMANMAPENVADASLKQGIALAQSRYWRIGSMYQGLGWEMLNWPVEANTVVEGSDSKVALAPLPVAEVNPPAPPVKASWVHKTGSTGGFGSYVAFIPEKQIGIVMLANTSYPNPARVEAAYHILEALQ
class A β-lactamase TEM-1, sequence (P62593 24-286 limits assumed): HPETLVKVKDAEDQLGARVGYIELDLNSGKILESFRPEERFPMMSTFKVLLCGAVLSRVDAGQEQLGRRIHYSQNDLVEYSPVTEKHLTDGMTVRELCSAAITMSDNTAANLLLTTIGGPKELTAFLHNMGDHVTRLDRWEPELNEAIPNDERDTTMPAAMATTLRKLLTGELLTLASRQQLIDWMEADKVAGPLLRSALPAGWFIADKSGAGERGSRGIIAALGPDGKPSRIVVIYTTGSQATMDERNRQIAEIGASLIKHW
class B enzyme CcrA, sequence (P25910 19-249): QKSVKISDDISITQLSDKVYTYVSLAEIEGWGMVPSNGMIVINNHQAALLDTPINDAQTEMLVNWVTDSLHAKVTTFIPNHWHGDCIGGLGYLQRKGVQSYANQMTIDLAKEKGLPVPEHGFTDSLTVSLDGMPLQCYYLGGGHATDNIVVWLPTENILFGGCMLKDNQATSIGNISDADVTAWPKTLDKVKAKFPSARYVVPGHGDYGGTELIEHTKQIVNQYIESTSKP

Row | Structure (SMILES) | ED50 [1, 6] [mg/kg] | Minimal Inhibitory Concentration E. Coli GC2844 (E. Coli GC2844) [µg/mL] | Minimal Inhibitory Concentration E. Coli GC2894 (Ampc) (E. Coli GC2894 (Ampc)) [µg/mL] | Minimal Inhibitory Concentration E. Coli GC22033 (E. Coli GC22033) [µg/mL] | Minimal Inhibitory Concentration E. Coli GC2920 (IRT-2) (E. Coli GC2920 (IRT-2)) [µg/mL] | Minimal Inhibitory Concentration E. Coli GC2847 (TEM-1) (E. Coli GC2847 (TEM-1)) [µg/mL] | Minimal Inhibitory Concentration E. Cloacae GC1477 (Ampc) (E. Cloacae GC1477 (Ampc)) [µg/mL] | Minimal Inhibitory Concentration P. aeruginos GC1764 (Ampc) [2] [µg/mL] | Minimal Inhibitory Concentration S. Marcescens GC1781 Sme-1 + Ampc [3] [µg/mL] | ED50 ([1]; Ratio of Piperacillin vs. Inhibitor 4:1) [mg/kg] | Minimal Inhibitory Concentration S. aureus GC2216 (S. aureus GC2216) [µg/mL] | ED50 [1, 7] [mg/kg] | IC50 [4] [nM] | IC50 (class B enzyme CcrA) [nM] | IC50 [5] [nM] | melting point [°C] | IC50 (class C enzyme AmpC) [nM]
1 | CC(=O)N1CCc2sc(/C=C3/C(=O)N4C(C(=O)[O-])=CS[C@H]34)cc2C1.[Na+] (single isomer, unassigned) [Example 34] | 32 | 4 | 32 | 2 | 4 | 32 | >64 | 32 | 2 | – | – | – | – | – | – | – | –
2 | COc1ccc(CN2CCc3sc(/C=C4/C(=O)N5C(C(=O)O)=CS[C@H]45)cc3C2)cc1 [Example 4] | – | 2 | 2 | 2 | 2 | 8 | 64 | 32 | 2 | 32 to 64 | 0.50 | – | – | – | – | – | –
3 | O=C(O)C1=CS[C@@H]2/C(=C\c3cc4c(s3)CCN(C(=O)c3cccnc3)C4)C(=O)N12 [Example 22] | – | – | – | – | – | – | – | – | – | – | – | 128 | 6.1 | 110 | 42 | 195 | 11
4 | O=C(O)C1=CS[C@@H]2/C(=C\c3cc4c(s3)CCN(C(=O)Cc3ccccc3)C4)C(=O)N12 [Example 23] | – | – | – | – | – | – | – | – | – | – | – | 128 | 4.6 | 140 | 40 | 166 to 169 | 7.8
5 | O=C([O-])C1=CS[C@@H]2/C(=C\c3cc4n(n3)CCCO4)C(=O)N12.[Na+] [Example 36, (5R)(6Z)-6-(6,7-5H-Dihydropyrazolo[5,1-b]oxazin-2-ylmethylene)-7-oxo-4-thia-1-azabicyclo[3.2.0]hept-2-ene-2-carboxylic acid, sodium salt] | 90 | 2 | 2 | 4 | 2 | 4 | 16 | 1 | 1 | – | 0.06 | – | 6.3 | 140 | 413 | – | 4.5

From patent US7812014B2, “Bicyclic 6-alkylidene-penems as β-lactamase inhibitors” (priority 2002, dated 2010)
